Reference: paper PMC4132841 (Neuron, 2012)
Values joined by “and” are separate entries in the source; they are usually repeats but may differ in a detail not shown here. Equal values may be shown once. Read-outs that look alike come from different tables or passages of the source.

How the values were obtained:
GluK2b(Q) and GluK3 = GluK2b(Q) and GluK3 (Rattus norvegicus, UniProt P42264); assay: Glutamate-activated currents in HEK293 cells cotransfected with GluK2b; type: cell-based; details: 1 μM UBP310; n = 6
GluK3 [1] = target: T1, GluK3 (Rattus norvegicus, UniProt P42264); type: cell-based; details: for effect of zinc on GluK3 currents: 100 μM zinc
GluK2 [2] = target: T2, GluK2 (Rattus norvegicus, UniProt P42260); type: cell-based; details: 10 mM glutamate
[3] = target: heteromeric GluK2/GluK3 receptors (Rattus norvegicus, UniProt P42260+P42264); assay: Glutamate currents of heteromeric GluK2b; type: cell-based
GluK3 [4] = target: T1, GluK3; type: cell-based
GluK2 [5] = target: T2, GluK2; type: cell-based; details: 100 μM zinc; control 3.4 ± 0.1 ms; n = 5; p = 0.20
GluK3(ERLK) = GluK3(ERLK) (Rattus norvegicus, UniProt P42264, I781L/K527E/K698R/Q785K); assay: Glutamate currents of desensitization mutant GluK3; type: cell-based; details: 100 μM zinc
GluK3(H492C, L753C) = GluK3(H492C, L753C) (Rattus norvegicus, UniProt P42264, H523C/L784C); assay: Glutamate currents of desensitization mutant GluK3; type: cell-based; details: 100 μM zinc; 10 mM glutamate, 100 ms
[6] = test system: extracellular domain of GluK3 and the transmembrane and intracellular segments of GluK2; assay: Whole-cell glutamate currents of chimeric receptor; type: cell-based, rat; details: 100 μM zinc; 10 mM glutamate, 100 ms; n = 5
[7] = test system: transmembrane and intracellular segments of GluK3 and the extracellular domain of GluK2; assay: Whole-cell glutamate currents of chimeric receptor; type: cell-based, rat; details: 100 μM zinc; 10 mM glutamate, 100 ms; n = 4
[8] = target: GluK3 subunits deleted of their ATD (Rattus norvegicus, UniProt P42264); assay: Whole-cell glutamate currents of ATD-deleted receptor; type: cell-based; details: 100 μM zinc; 10 mM glutamate, 100 ms; n = 5
[9] = target: GluK2 receptors where the ATD was excised (Rattus norvegicus, UniProt P42260); assay: as above; type: cell-based; details: 100 μM zinc; 10 mM glutamate, 100 ms; n = 4
GluK3/K2S2 = GluK3/K2S2 (Rattus norvegicus, UniProt P42260+P42264, A594P/A717V/A732S/D593N/D790G/E602D/E705D/F704Y/G600D/I638V/I746V/I767V/I794M/I818V/I844L/INS713R/K688E/K714R/K820N/L736F/L837F/M618V/N721S/N810S/P715Q/S620A/S803N/T729V/V569I/Y745F); assay: Whole-cell glutamate currents of S2 chimera; type: cell-based; details: 100 μM zinc; 10 mM glutamate, 100 ms; n = 5
GluK2/K3S2 = assay: Whole-cell glutamate currents of S2 chimera; type: cell-based, rat; details: 100 μM zinc; 10 mM glutamate, 100 ms; n = 5
GluK2(G758D) = GluK2(G758D) (Rattus norvegicus, UniProt P42260, G789D); assay: Glutamate currents of point mutant, outside-out patches; type: cell-based; details: 100 μM zinc; 10 mM glutamate; n = 6
GluK3(D759G) = GluK3(D759G) (Rattus norvegicus, UniProt P42264, D790G); assay: as above; type: cell-based; details: 100 μM zinc; 10 mM glutamate; n = 5
GluK3(H762A) = GluK3(H762A) (Rattus norvegicus, UniProt P42264, H793A); assay: as above; type: cell-based; details: 100 μM zinc; 10 mM glutamate; n = 5
GluK3(H492Y) = GluK3(H492Y) (Rattus norvegicus, UniProt P42264, H523Y); assay: Glutamate currents of point mutant; type: cell-based; details: 100 μM zinc; 10 mM glutamate
GluK3(H492A) = GluK3(H492A) (Rattus norvegicus, UniProt P42264, H523A); assay: Glutamate currents of point mutant; type: cell-based; details: 100 μM zinc; 10 mM glutamate
GluK2(Y490H) = GluK2(Y490H) (Rattus norvegicus, UniProt P42260, Y521H); assay: Glutamate currents of point mutant; type: cell-based; details: 100 μM zinc; 10 mM glutamate
GluK3(D730A) = GluK3(D730A) (Rattus norvegicus, UniProt P42264, D761A); assay: Glutamate currents of point mutant, outside-out patches; type: cell-based; details: 100 μM zinc; 10 mM glutamate; n = 6
GluK3(D730N) = GluK3(D730N) (Rattus norvegicus, UniProt P42264, D761N); assay: as above; type: cell-based; details: 100 μM zinc; 10 mM glutamate
GluK2b and GluK3(D730A) = GluK2b and GluK3(D730A) (Rattus norvegicus, UniProt P42260+P42264, D761A); assay: Glutamate currents of heteromeric mutant receptors, 1 μM UBP310 present; type: cell-based; details: 100 μM zinc, 10 mM glutamate
GluK2b(D729A) and GluK3 = GluK2b(D729A) and GluK3 (Rattus norvegicus, UniProt P42260+P42264, D760A); assay: Glutamate currents of heteromeric mutant receptors; type: cell-based; details: 10 mM glutamate
[10] = test system: KARs containing GluK4 or GluK5 subunits; details: read-out: IC50 of zinc inhibition; ref Mott et al., 2008; cited from earlier work
GluK1-GluK2 = details: read-out: IC50 of zinc inhibition; ref Mott et al., 2008; cited from earlier work
GluN1/GluN2A receptors = details: ref Paoletti et al., 1997; cited from earlier work
GluN1/GluN2B = details: ref Paoletti et al., 1997; cited from earlier work
[11] = combined potentiation/inhibition Hill equations

T1 sequence (P42264 32-919): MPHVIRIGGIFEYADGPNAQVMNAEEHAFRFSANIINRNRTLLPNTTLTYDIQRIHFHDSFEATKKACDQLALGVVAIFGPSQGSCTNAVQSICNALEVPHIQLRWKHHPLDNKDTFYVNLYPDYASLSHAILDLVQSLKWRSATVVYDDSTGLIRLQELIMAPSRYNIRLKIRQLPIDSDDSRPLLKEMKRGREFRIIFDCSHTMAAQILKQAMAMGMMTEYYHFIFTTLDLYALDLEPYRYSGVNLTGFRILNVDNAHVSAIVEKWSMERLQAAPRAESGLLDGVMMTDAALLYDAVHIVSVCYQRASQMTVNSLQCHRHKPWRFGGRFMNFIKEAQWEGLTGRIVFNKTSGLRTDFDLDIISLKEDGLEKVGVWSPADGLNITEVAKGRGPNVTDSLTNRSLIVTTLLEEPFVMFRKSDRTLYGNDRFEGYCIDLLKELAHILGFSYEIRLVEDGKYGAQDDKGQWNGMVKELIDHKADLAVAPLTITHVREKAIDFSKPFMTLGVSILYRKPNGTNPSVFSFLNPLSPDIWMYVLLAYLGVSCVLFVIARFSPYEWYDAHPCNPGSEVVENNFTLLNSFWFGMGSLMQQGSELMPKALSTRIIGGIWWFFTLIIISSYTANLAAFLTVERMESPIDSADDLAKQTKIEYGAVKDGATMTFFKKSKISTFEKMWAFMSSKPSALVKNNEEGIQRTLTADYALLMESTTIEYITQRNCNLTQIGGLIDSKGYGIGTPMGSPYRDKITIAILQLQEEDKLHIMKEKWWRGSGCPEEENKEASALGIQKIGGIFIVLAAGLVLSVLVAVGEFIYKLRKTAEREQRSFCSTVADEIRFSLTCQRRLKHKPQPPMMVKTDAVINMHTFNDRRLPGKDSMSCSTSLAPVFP
GluK3(ERLK), sequence (P42264 32-919 K527E/K698R/I781L/Q785K): as the sequence (P42264 32-919) above, with K496E, K667R, I750L, Q754K counted along it
GluK3(H492C, L753C), sequence (P42264 32-919 H523C/L784C): as the sequence (P42264 32-919) above, with H492C, L753C counted along it
GluK3(D759G), sequence (P42264 32-919 D790G): as the sequence (P42264 32-919) above, with D759G counted along it
GluK3(H492Y), sequence (P42264 32-919 H523Y): as the sequence (P42264 32-919) above, with H492Y counted along it
GluK3(H762A), sequence (P42264 32-919 H793A): as the sequence (P42264 32-919) above, with H762A counted along it
GluK3(H492A), sequence (P42264 32-919 H523A): as the sequence (P42264 32-919) above, with H492A counted along it
GluK3(D730N), sequence (P42264 32-919 D761N): as the sequence (P42264 32-919) above, with D730N counted along it
GluK2b(Q) and GluK3, sequence (P42264 32-919): as the sequence (P42264 32-919) above
GluK3 subunits deleted of their ATD, sequence (P42264 376-919, stated change not applied): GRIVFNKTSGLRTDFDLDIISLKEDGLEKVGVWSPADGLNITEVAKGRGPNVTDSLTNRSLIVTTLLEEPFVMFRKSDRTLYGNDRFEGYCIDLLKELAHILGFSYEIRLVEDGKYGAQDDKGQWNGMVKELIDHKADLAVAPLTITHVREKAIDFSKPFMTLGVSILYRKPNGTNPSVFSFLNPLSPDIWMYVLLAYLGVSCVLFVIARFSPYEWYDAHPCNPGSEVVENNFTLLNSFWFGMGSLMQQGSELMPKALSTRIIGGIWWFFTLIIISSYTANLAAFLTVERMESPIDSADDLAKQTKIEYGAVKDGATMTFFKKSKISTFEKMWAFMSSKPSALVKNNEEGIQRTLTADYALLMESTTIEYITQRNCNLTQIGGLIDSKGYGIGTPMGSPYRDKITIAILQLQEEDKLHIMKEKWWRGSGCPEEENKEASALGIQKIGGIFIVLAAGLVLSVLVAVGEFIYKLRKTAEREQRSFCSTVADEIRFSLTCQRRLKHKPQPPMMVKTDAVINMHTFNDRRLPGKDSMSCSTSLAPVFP
GluK3(D730A), sequence (P42264 32-919 D761A): as the sequence (P42264 32-919) above, with D730A counted along it

Q: With `Cc1cn(C[C@H](N)C(=O)O)c(=O)n(Cc2ccsc2C(=O)O)c1=O` [UBP310] as the molecule, how does the “inhibition of glutamate-activated currents” value (GluK2b(Q) and GluK3) read?
A: 55%

Q: Which “current amplitude with zinc, % of control amplitude” value (from here on “current amplitude with zinc, %”) (GluK3 [1]; 100 μM zinc preapplied, 10 mM glutamate, 100 ms, whole-cell, n = 17) does the source give for `[Cl-].[Cl-].[Zn+2]` [zinc, ZnCl2] here?
A: 193% ± 38%

Q: And the “effect of zinc on GluK3 currents” value (GluK3 [1]; pH 6.8)?
A: inhibited

Q: And the “effect of zinc on GluK3 currents” value (GluK3 [1]; pH 8.3)?
A: potentiated

Q: And the “zinc concentrations that clearly inhibit currents” value (GluK3 [1]; WT GluK3 receptors)?
A: above 300 μM

Q: What about the “maximal potentiation of GluK3 currents by zinc” value (GluK3 [1]; [11]) of the same molecule?
A: 475% ± 47%

Q: What about the “nH of zinc potentiation of GluK3 currents” value (GluK3 [1]; [11]) of the same molecule?
A: 1.82 ± 0.95

Q: And the “zinc concentrations that potentiate glutamate currents” value (GluK3 [1]; homomeric and heteromeric KARs containing GluK3)?
A: 10 to 100 µM

Q: And the “effect of zinc on GluK3-mediated currents” value (GluK3 [1]; simultaneous application of zinc and glutamate, data not shown)?
A: does not potentiate

Q: What about the “Hill coefficient (nH) of zinc inhibition of GluK2 currents” value (GluK2 [2]) of the same molecule?
A: 1.1 and 1.1 ± 0.1

Q: And the “UBP310-resistant current with zinc, % of control” value ([3]; 100 μM zinc, 10 mM glutamate, 1 μM UBP310, n = 18)?
A: 157% ± 7%

Q: What about the “maximal potentiation by zinc, % of control” value ([3]; 10 mM glutamate, Hill fit) of the same molecule?
A: 286%

Q: And the “nH of zinc potentiation of GluK2/GluK3 currents” value ([3]; 10 mM glutamate, Hill fit)?
A: 0.6 and 0.6 ± 0.4

Q: And the “inhibition of GluK2/GluK3 currents by high zinc” value ([3]; zinc concentrations up to 1 mM)?
A: no inhibition

Q: And the “τdes (current decay) with zinc” value (GluK3 [4]; 100 μM zinc, 10 mM glutamate, 100 ms, control 5.0 ± 0.2 ms, n = 8)?
A: 9.8 ± 0.4 ms

Q: What about the “time for half-recovery from desensitization with zinc” value (GluK3 [4]; 100 μM zinc, absence of zinc 902 ± 1.1 ms, n = 5) of the same molecule?
A: 460 ± 1.2 ms

Q: What about the “deactivation kinetics with zinc” value (GluK3 [4]; 1 ms pulses of 10 mM glutamate, control 1.5 ± 0.05 ms, n = 4) of the same molecule?
A: 2.3 ± 0.1 ms

Q: And the “current amplitude with zinc, %” value (GluK3 [4]; 1 ms pulses of 10 mM glutamate, n = 4)?
A: 191% ± 22%

Q: What about the “τdes (current decay) with zinc” value (GluK2 [5]) of the same molecule?
A: 3.7 ± 0.1 ms

Q: And the “effect of zinc on desensitization rate” value (GluK3(ERLK))?
A: no change

Q: And the “effect of zinc on glutamate currents” value (GluK3(ERLK); 10 mM glutamate, 100 ms)?
A: inhibited rather than potentiated

Q: And the “effect of zinc on glutamate currents” value (GluK3(H492C, L753C))?
A: inhibited

Q: What about the “current amplitude with zinc, %” value [6] of the same molecule?
A: 175% ± 9%

Q: And the “current with zinc (inhibited), %” value [7]?
A: 40% ± 8%

Q: What about the “current with zinc (potentiation), %” value [8] of the same molecule?
A: 186% ± 13%

Q: And the “current with zinc (inhibition), %” value [9]?
A: 44% ± 11%

Q: And the “current with zinc (inhibited), %” value (GluK3/K2S2)?
A: 54% ± 6%

Q: What about the “current with zinc (facilitated), %” value (GluK2/K3S2) of the same molecule?
A: 197% ± 9%

Q: And the “current amplitude with zinc, %” value (GluK2(G758D))?
A: 177% ± 7%

Q: And the “current with zinc (inhibited), %” value (GluK3(D759G))?
A: 32% ± 9%

Q: What about the “peak amplitude with zinc, %” value (GluK3(H762A)) of the same molecule?
A: 45% ± 6%

Q: What about the “effect of zinc on glutamate currents” value (GluK3(H492Y)) of the same molecule?
A: still potentiated

Q: What about the “effect of zinc on glutamate currents” value (GluK3(H492A)) of the same molecule?
A: still potentiated

Q: And the “effect of zinc on glutamate currents” value (GluK2(Y490H))?
A: inhibited

Q: And the “current amplitude with zinc, %” value (GluK3(D730A))?
A: 33% ± 2%

Q: And the “effect of zinc on glutamate currents” value (GluK3(D730N))?
A: retained zinc potentiation

Q: What about the “effect of zinc on glutamate currents” value (GluK2b and GluK3(D730A)) of the same molecule?
A: potentiation

Q: And the “effect of zinc on glutamate currents” value (GluK2b(D729A) and GluK3)?
A: did not potentiate

Q: And the IC50 [10]?
A: 1 to 2 µM

Q: What about the IC50 (GluK1-GluK2) of the same molecule?
A: ~70 µM

Q: And the “affinity of zinc inhibition of NMDAR function” value (GluN1/GluN2A receptors)?
A: low nanomolar

Q: And the “affinity of zinc inhibition of NMDAR function” value (GluN1/GluN2B)?
A: low micromolar
